Reference: patent publication US7786040B2, “4-cyclopropyl-1,2,3,-thiadiazole compound, agrohorticultural plant disease controlling agent and method of using the same” (Nihon Nohyaku Co., Ltd., priority 2005, dated 2010)

What was measured:
[1] = tested on: powdery mildew fungus (Blumeria graminis); experiment: Test Example 1: controlling effect by seed dressing against wheat powdery mildew; format: in vivo; details: 0.15% active ingredient based on weight of dry seeds, inoculated 25 days after sowing, investigated 7 days after inoculation
Description: (§1) Seeds of wheat (cultivar: chihoku komugi) and a wettable powder prepared according to Formulation Example were placed in a vinyl bag, followed by adding thereto a small volume of water, and they were mixed to conduct seed dressing. On the day after this treatment, the seeds sowed in a plastic pot of 10 cm diameter, and cultivated in a greenhouse. Twenty five days after sowing, the seedlings thus obtained were inoculated with powdery mildew fungus (Blumeria graminis) by sprinkling. Seven days after inoculation, the seedlings were investigated and infection index was estimated according to the criterion shown below, after which the control efficacy (%) was calculated. In this occasion, infection index on the untreated plot was 8.0. As comparative examples, the following compounds described in JP-A-2001-10909 were evaluated. • I: 3′-chloro-4,4′-dimethyl-1,2,3-thiadiazole-5-carboxanilide • II: benzyl 4-isopropyl-1,2,3-thiadiazole-5-carboxylate • III: methyl 4-cyclopropyl-1,2,3-thiadiazole-5-carboxylate • IV: 4-cyclopropyl-1,2,3-thiadiazole-5-carboxylic acid Infection Index • 0: No infection. • 0.5: Lesion area percentage: less than 10% • 1: Lesion area percentage; 10 to less than 20% • 2: Lesion area percentage; 20 to less than 30% • 3: Lesion area percentage; 30 to less than 40% • 4: Lesion area percentage; 40 to less than 50% • 5: Lesion area percentage; 50 to less than 60% • 6: Lesion area percentage; 60 to less than 70% • 7: Lesion area percentage; 70 to less than 80% • 8: Lesion area percentage; 80 to less than 90% • 9: Lesion area percentage; 90 to less than 100% • 10: Lesion area percentage; 100% Control efficacy (%)={1-(infection index on treated plot/infection index on untreated plot)}×100 Rank of Control Efficacy • A: Control efficacy 100-90% • B: Control efficacy 89-80% • C: Control efficacy 79-60% • D: Control efficacy 59-0%

[2] = tested on: powdery mildew fungus (Blumeria graminis); experiment: Test Example 2: controlling effect by seed dressing against wheat powdery mildew, long-lasting effect; format: in vivo; details: 0.15% active ingredient based on weight of dry seeds, inoculated 50 days after sowing, investigated 7 days after inoculation
Description: as §1
Seeds of wheat (cultivar: Chihoku Komugi) and a wettable powder prepared according to Formulation Example were placed in a vinyl bag, followed by adding thereto a small volume of water, and they were mixed to conduct seed dressing. On the day after this treatment, the seeds sowed in a plastic pot of 10 cm diameter, and cultivated in a greenhouse. Fifty days after sowing, the seedlings thus obtained were inoculated with powdery mildew fungus (Blumeria graminis) by sprinkling. Seven days after inoculation, the seedlings were investigated and infection index was estimated according to the criterion shown below, after which the control efficacy (%) was calculated. In this occasion, infection index on the untreated plot was 8.0. As comparative examples, the above-described compounds I, II, III and IV were evaluated.

## O=C(Nc1cccc2c1C(=O)OC2)c1snnc1C1CC1 [1-186]
[1]
  Rank of control efficacy: B or more

## CNC(=O)c1ccccc1NC(=O)c1snnc1C1CC1 [1-189]
[2]
  Rank of control efficacy: B or more
[1]
  Rank of control efficacy: B or more

## COc1ccc(COC(=O)c2snnc2C2CC2)cc1 [1-18]
[2]
  Rank of control efficacy: B or more
[1]
  Rank of control efficacy: B or more

## CCOC(=O)c1sc(NC(=O)c2snnc2C2CC2)nc1C [1-173]
[2]
  Rank of control efficacy: B or more
[1]
  Rank of control efficacy: B or more

## COc1cccc(CNC(=O)c2snnc2C2CC2)c1OC [1-165]
[2]
  Rank of control efficacy: B or more
[1]
  Rank of control efficacy: B or more

## O=c1oc(-c2snnc2C2CC2)nc2ccccc12 [2-1, 2-(4-cyclopropyl-1,2,3-thiadiazol-5-yl)-4-H-3,1-benzoxazin-4-one]
[1]
  Rank of control efficacy: B or more

## O=C(OCc1ccccc1Cl)c1snnc1C1CC1 [1-10, (2-chlorobenzyl)4-cyclopropyl-1,2,3-thiadiazole-5-carboxylate]
[2]
  Rank of control efficacy: B or more
[1]
  Rank of control efficacy: B or more

## O=C(Nc1nc2ccccc2s1)c1snnc1C1CC1 [1-111]
[2]
  Rank of control efficacy: B or more
[1]
  Rank of control efficacy: B or more

## Cc1cccc(C)c1NC(=O)c1snnc1C1CC1 [1-151]
[1]
  Rank of control efficacy: B or more

## O=C(NCc1ccc(Oc2ccc(C(F)(F)F)cc2)cc1)c1snnc1C1CC1 [1-66]
[1]
  Rank of control efficacy: B or more

## COc1ccc(OC)c(NC(=O)c2snnc2C2CC2)c1 [1-155]
[2]
  Rank of control efficacy: B or more
[1]
  Rank of control efficacy: B or more

## CC(C)(C)OC(=O)c1ccc(COC(=O)c2snnc2C2CC2)cc1 [1-25]
[1]
  Rank of control efficacy: B or more

## O=C(NS(=O)(=O)c1ccc(Cl)cc1)c1snnc1C1CC1 [1-157]
[1]
  Rank of control efficacy: B or more

## COc1ccc(C(C)OC(=O)c2snnc2C2CC2)cc1 (stereo not drawn) [1-50]
[2]
  Rank of control efficacy: B or more
[1]
  Rank of control efficacy: B or more

## COC(c1ccc(NC(=O)c2snnc2C2CC2)cc1OC(C)C)(C(F)(F)F)C(F)(F)F [1-103]
[1]
  Rank of control efficacy: B or more

## CCc1cccc(CC)c1N(C(=O)c1snnc1C1CC1)C(=O)c1snnc1C1CC1 [1-154]
[1]
  Rank of control efficacy: B or more

## O=C(NOCc1ccccc1)c1snnc1C1CC1 [1-113]
[2]
  Rank of control efficacy: B or more
[1]
  Rank of control efficacy: B or more

## Cc1nsc(NC(=O)c2snnc2C2CC2)c1Br [1-174]
[1]
  Rank of control efficacy: B or more

## O=C(NS(=O)(=O)c1ccccc1Cl)c1snnc1C1CC1 [1-158]
[1]
  Rank of control efficacy: B or more

## COc1cc(OC)nc(NC(=O)c2snnc2C2CC2)n1 [1-175]
[2]
  Rank of control efficacy: B or more
[1]
  Rank of control efficacy: B or more

## O=C(Nc1cccc2nnsc12)c1snnc1C1CC1 [1-184]
[2]
  Rank of control efficacy: B or more
[1]
  Rank of control efficacy: B or more

## O=C(NCc1cnc(Cl)s1)c1snnc1C1CC1 [1-185]
[1]
  Rank of control efficacy: B or more

## O=C(NCc1ccc(Cl)cc1Cl)c1snnc1C1CC1 [1-164]
[1]
  Rank of control efficacy: B or more

## CSc1ccccc1NC(=O)c1snnc1C1CC1 [1-190]
[2]
  Rank of control efficacy: B or more
[1]
  Rank of control efficacy: B or more

## N#Cc1snnc1C1CC1 [3-1, 4-cyclopropyl-1,2,3-thiadiazole-5-carbonitrile]
[2]
  Rank of control efficacy: B or more
[1]
  Rank of control efficacy: B or more

## Cc1ccc(Oc2ccc(CNC(=O)c3snnc3C3CC3)cc2)cc1 [1-65]
[1]
  Rank of control efficacy: B or more

## Cc1cc(C)nc(NC(=O)c2snnc2C2CC2)n1 [1-177]
[2]
  Rank of control efficacy: B or more
[1]
  Rank of control efficacy: B or more

## O=C(NCc1ccc(OCC(F)(F)F)cc1)c1snnc1C1CC1 [1-68]
[2]
  Rank of control efficacy: B or more
[1]
  Rank of control efficacy: B or more

## O=C(OCc1ccc(Cl)cc1Cl)c1snnc1C1CC1 [1-26]
[1]
  Rank of control efficacy: B or more

## Cc1ccc(NC(=S)c2snnc2C2CC2)cc1Cl [1-143, 3′-chloro-4-cyclopropyl-4′-methyl-1,2,3-thiadiazole-5-thiocarboxamilide]
[2]
  Rank of control efficacy: B or more
[1]
  Rank of control efficacy: B or more

## CCc1cccc(CC)c1NC(=O)c1snnc1C1CC1 [1-152]
[1]
  Rank of control efficacy: B or more

## Cc1ccc(CNC(=O)c2snnc2C2CC2)c(C)c1 [1-162]
[1]
  Rank of control efficacy: B or more

## O=C(Nc1nc(-c2ccccc2)cs1)c1snnc1C1CC1 [1-170]
[2]
  Rank of control efficacy: B or more
[1]
  Rank of control efficacy: B or more

## COc1ccc(NC(=S)c2snnc2C2CC2)c(OC)c1 [1-144]
[2]
  Rank of control efficacy: B or more
[1]
  Rank of control efficacy: B or more

## COc1ccc(OC)c(CNC(=O)c2snnc2C2CC2)c1 [1-167]
[2]
  Rank of control efficacy: B or more
[1]
  Rank of control efficacy: B or more

## COc1ccccc1COC(=O)c1snnc1C1CC1 [1-16]
[2]
  Rank of control efficacy: B or more
[1]
  Rank of control efficacy: B or more

## CC(C)c1nnsc1C(=O)OCc1ccccc1 [II, benzyl 4-isopropyl-1,2,3-thiadiazole-5-carboxylate, reference compound]
[1]
  Rank of control efficacy: C (Control efficacy 79-60%)

## CCOC(=O)c1csc(NC(=O)c2snnc2C2CC2)n1 [1-169]
[2]
  Rank of control efficacy: B or more
[1]
  Rank of control efficacy: B or more

## CN(Cc1ccccc1)C(=O)c1snnc1C1CC1 [1-82]
[2]
  Rank of control efficacy: B or more
[1]
  Rank of control efficacy: B or more

## COc1cc(C)nc(NC(=O)c2snnc2C2CC2)n1 [1-176]
[2]
  Rank of control efficacy: B or more
[1]
  Rank of control efficacy: B or more

## COc1ccc(NC(=O)c2snnc2C2CC2)cc1OC [1-97]
[2]
  Rank of control efficacy: B or more
[1]
  Rank of control efficacy: B or more

## COc1ccc(NC(=O)c2snnc2C2CC2)c(C)c1 [1-156]
[2]
  Rank of control efficacy: B or more
[1]
  Rank of control efficacy: B or more

## O=C(NS(=O)(=O)C(F)(F)F)c1snnc1C1CC1 [1-122]
[1]
  Rank of control efficacy: B or more

## O=C(NCc1ccc(Cl)cc1)c1snnc1C1CC1 [1-56]
[1]
  Rank of control efficacy: B or more

## Cc1ccccc1COC(=O)c1snnc1C1CC1 [1-13]
[2]
  Rank of control efficacy: B or more
[1]
  Rank of control efficacy: B or more

## C=CCNC(=O)c1snnc1C1CC1 [1-145]
[2]
  Rank of control efficacy: B or more
[1]
  Rank of control efficacy: B or more

## Cc1ccc(CNC(=O)c2snnc2C2CC2)cc1 [1-59]
[1]
  Rank of control efficacy: B or more

## COc1ccc(CNC(=O)c2snnc2C2CC2)cc1 [1-62]
[2]
  Rank of control efficacy: B or more
[1]
  Rank of control efficacy: B or more

## CS(=O)(=O)NC(=O)c1snnc1C1CC1 [1-120]
[1]
  Rank of control efficacy: B or more

## CN(C)c1ccncc1.COc1ccc2nc(NC(=O)c3snnc3C3CC3)sc2c1 [1-181]
[1]
  Rank of control efficacy: B or more

## O=C(Nc1nnc(C(F)(F)F)s1)c1snnc1C1CC1 [1-112]
[2]
  Rank of control efficacy: B or more
[1]
  Rank of control efficacy: B or more

## Cc1ccc(COC(=O)c2snnc2C2CC2)cc1 [1-15]
[2]
  Rank of control efficacy: B or more
[1]
  Rank of control efficacy: B or more

## COc1cc(CNC(=O)c2snnc2C2CC2)cc(OC)c1 [1-168]
[1]
  Rank of control efficacy: B or more

## CC(OC(=O)c1snnc1C1CC1)c1ccccc1 (stereo not drawn) [1-41]
[2]
  Rank of control efficacy: B or more
[1]
  Rank of control efficacy: B or more

## Cc1nc(-c2cccnc2NC(=O)c2snnc2C2CC2)no1 [1-183]
[2]
  Rank of control efficacy: B or more
[1]
  Rank of control efficacy: B or more

## COc1ccc2nc(NC(=O)c3snnc3C3CC3)sc2c1 [1-180]
[1]
  Rank of control efficacy: B or more

## O=C(Nc1nc2ccc(Cl)cc2s1)c1snnc1C1CC1 [1-178]
[2]
  Rank of control efficacy: B or more
[1]
  Rank of control efficacy: B or more

## Cc1ccc(C)c(CNC(=O)c2snnc2C2CC2)c1 [1-163]
[1]
  Rank of control efficacy: B or more

## Cc1ccc(C(C)OC(=O)c2snnc2C2CC2)cc1 (stereo not drawn) [1-47]
[1]
  Rank of control efficacy: B or more

## CN(C)c1ccncc1.O=C(Nc1nc2ccc(Cl)cc2s1)c1snnc1C1CC1 [1-179]
[2]
  Rank of control efficacy: B or more
[1]
  Rank of control efficacy: B or more

## Cc1cccc(C)c1N(C(=O)c1snnc1C1CC1)C(=O)c1snnc1C1CC1 [1-153]
[1]
  Rank of control efficacy: B or more

## Cc1nc(-c2ccccc2NC(=O)c2snnc2C2CC2)no1 [1-182]
[1]
  Rank of control efficacy: B or more
